Laboratory results: patent US20180147196A1, “PYRIDIN-3-YL ACETIC ACID DERIVATIVES AS INHIBITORS OF HUMAN IMMUNODEFICIENCY VIRUS REPLICATION” (priority 2015, published 2018)
Read-outs that look alike come from different tables or passages of the source.

Tested on: NL-RLuc virus
Assay: Inhibition of HIV replication (NL-RLuc virus in MT-2 cells, luciferase readout)
Type: cell-based
Settings: Human immunodeficiency virus 1, MT2, 120 h
Description: Inhibition of HIV replication: A recombinant NL-RLuc proviral clone was constructed in which a section of the nef gene from NL4-3 was replaced with the Renilla Luciferase gene. This virus is fully infectious and can undergo multiple cycles of replication in cell culture. In addition, the luciferous reporter provides a simple and easy method for quantitating the extent of virus growth and consequently, the antiviral activity of test compounds. The plasmid pNLRLuc contains the proviral NL-Rluc DNA cloned into pUC18 at the Pvull site. The NL-RLuc virus was prepared by transfection of 293T cells with the plasmid pNLRLuc. Transfections were performed using the LipofectAMINE PLUS kit from Invitrogen (Carlsbad, Calif.) according to the manufacturer and the virus generated was titered in MT-2 cells. For susceptibility analyses, the titrated virus was used to infect MT-2 cells in the presence of compound, and after 5 days of incubation, cells were processed and quantitated for virus growth by the amount of expressed luciferase. Assay media was RPMI 1640 supplemented with 10% heat inactivated fetal bovine serum (FBS), 100 units/ml penicillin G/100 units/ml streptomycin, 10 mM HEPES buffer pH 7.55 and 2 mM L-glutamine. The results from at least 2 experiments were used to calculate the EC50 values. Luciferase was quantitated using the Dual Luciferase kit from Promega (Madison, Wis.). Susceptibility of viruses to compounds was determined by incubation in the presence of serial dilutions of the compound. The 50% effective concentration (EC50) was calculated by using the exponential form of the median effect equation where (Fa)=1/[1+(ED50/drug conc.)^m] (Johnson V A, Byington R T. Infectivity Assay. In Techniques in HIV Research. ed. Aldovini A, Walker BD. 71-76. New York: Stockton Press.1990). Activity equal to A refers to a compound having an EC50<100 nM, while B and C denote compounds having an EC50 between 100 nM and 1 uM (B) or >1 uM (C).

Structure (SMILES): COC(=O)N1CC=C(c2c(C)nc(C)c([C@H](OC(C)(C)C)C(=O)O)c2N2CCC(C)(C)CC2)CC1 [Example 20, (S)-2-(tert-Butoxy)-2-(4-(4,4-dimethylpiperidin-1-yl)-1′-(methoxycarbonyl)-2,6-dimethyl-1′,2′,3′,6′-tetrahydro-[3,4′-bipyridin]-5-yl)acetic acid]
- EC50 (read-out: Activity): 0.1 to 1 µM

Structure (SMILES): Cc1nc(C)c([C@H](OC(C)(C)C)C(=O)O)c(N2CCC(C)(C)CC2)c1/C=C/c1ccc(-c2ccccc2)cc1 [Example 5, (S,E)-2-(5-(2-([1,1′-Biphenyl]-4-yl)vinyl)-4-(4,4-dimethylpiperidin-1-yl)-2,6-dimethylpyridin-3-yl)-2-(tert-butoxy)acetic acid]
- EC50 (read-out: Activity): < 0.1 µM
- EC50 (read-out: EC50 μM): 0.035 µM

Structure (SMILES): Cc1nc(C)c([C@H](OC(C)(C)C)C(=O)O)c(N2CCC(C)(C)CC2)c1C1=CCN(CCc2ccc(F)cc2)CC1 [Example 22, (S)-2-(tert-Butoxy)-2-(4-(4,4-dimethylpiperidin-1-yl)-1′-(4-fluorophenethyl)-2,6-dimethyl-1′,2′,3′,6′-tetrahydro-[3,4′-bipyridin]-5-yl)acetic acid]
- EC50 (read-out: Activity): 0.1 to 1 µM

Structure (SMILES): Cc1ncc(C2=CCN(CCCc3ccc(F)cc3)CC2)c(N2CCC(C)(C)CC2)c1[C@H](OC(C)(C)C)C(=O)O [Example 32, (S)-2-(tert-Butoxy)-2-(4-(4,4-dimethylpiperidin-1-yl)-1′-(3-(4-fluorophenyl)propyl)-6-methyl-1′,2′,3′,6′-tetrahydro-[3,4′-bipyridin]-5-yl)acetic acid]
- EC50 (read-out: Activity): < 0.1 µM
- EC50 (read-out: EC50 μM): 0.002 µM

Structure (SMILES): C/C=C/c1c(C)nc(C)c([C@H](OC(C)(C)C)C(=O)O)c1N1CCC(C)(C)CC1 [Example 30, (S,E)-2-(tert-Butoxy)-2-(4-(4,4-dimethylpiperidin-1-yl)-2,6-dimethyl-5-(prop-1-en-1-yl)pyridin-3-yl)acetic acid]
- EC50 (read-out: Activity): 0.1 to 1 µM

Structure (SMILES): Cc1nc(C)c([C@H](OC(C)(C)C)C(=O)O)c(N2CCC(C)(C)CC2)c1C1CC1 [Example 31, (S)-2-(tert-Butoxy)-2-(5-cyclopropyl-4-(4,4-dimethylpiperidin-1-yl)-2,6-dimethylpyridin-3-yl)acetic acid]
- EC50 (read-out: Activity): 0.1 to 1 µM
- EC50 (read-out: EC50 μM): 0.118 µM
